These results are taken from patent US11718622B2, “Heterocyclic adenosine receptor antagonists” (Exelixis, Inc., priority 2020, dated 2023).

In test [1] the target is Adenosine A2a (ADORA2A) receptor (Homo sapiens (Human), UniProt P29274). The test is described as follows: ADORA2A Receptor Binding Assay. The conditions noted are these: radioligand binding, membrane stock. The procedure, abridged: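 Test compounds incubated with A2a receptor membranes and a ³H-labelled radioligand for 2 hours at room temperature, then filtered through PEI-presoaked GF/C plates and washed. Filter-bound ³H counted by scintillation; % inhibition calculated from background-subtracted signal relative to high control.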

The target in test [2] is Adenosine A2B (ADORA2B) receptor (Homo sapiens (Human), UniProt P29275). The test is described as follows: ADORA2B Receptor Binding Assay. The settings on record: radioligand binding, membrane stock. The procedure, abridged:
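Radioligand competition binding on human A2B receptor membranes, 1 h at room temperature, then filtration through BSA-presoaked GF/C filters and ³H counting by scintillation. Inhibition expressed as % of high control after background subtraction.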

pIC50: −log10 of the molar value. Some results are limits rather than exact numbers.

Adenosine A2a (ADORA2A) receptor, sequence (P29274 whole entry): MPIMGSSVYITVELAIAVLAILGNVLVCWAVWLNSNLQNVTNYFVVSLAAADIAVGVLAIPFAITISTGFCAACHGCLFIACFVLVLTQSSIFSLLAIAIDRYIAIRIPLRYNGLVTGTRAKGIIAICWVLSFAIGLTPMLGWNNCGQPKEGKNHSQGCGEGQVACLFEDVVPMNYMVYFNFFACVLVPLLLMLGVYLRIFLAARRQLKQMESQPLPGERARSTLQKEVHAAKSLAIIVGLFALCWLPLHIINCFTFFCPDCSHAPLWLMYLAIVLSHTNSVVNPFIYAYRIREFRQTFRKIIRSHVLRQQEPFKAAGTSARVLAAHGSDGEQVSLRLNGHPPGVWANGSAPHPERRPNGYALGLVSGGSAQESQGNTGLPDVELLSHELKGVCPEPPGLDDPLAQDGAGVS
Adenosine A2B (ADORA2B) receptor, sequence (P29275 whole entry): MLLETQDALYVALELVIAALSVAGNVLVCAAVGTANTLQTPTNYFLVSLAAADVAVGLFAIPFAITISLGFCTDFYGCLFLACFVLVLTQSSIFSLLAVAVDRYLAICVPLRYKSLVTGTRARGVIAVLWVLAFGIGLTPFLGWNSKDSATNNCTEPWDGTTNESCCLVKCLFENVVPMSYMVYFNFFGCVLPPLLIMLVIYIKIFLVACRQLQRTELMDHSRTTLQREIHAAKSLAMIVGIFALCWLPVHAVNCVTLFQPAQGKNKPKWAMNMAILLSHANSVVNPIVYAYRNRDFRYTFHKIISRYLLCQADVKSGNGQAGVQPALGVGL

Take `Cc1nc2cc(NC(=O)N3CCCC3)nc(-c3ccco3)n2n1` [Compound 103, N-[5-(furan-2-yl)-2-methyl-[1,2,4]triazolo[1,5-c]pyrimidin-7-yl]pyrrolidine-1-carboxamide]: the results for the pIC50 in test [1] and in test [2] were 7.00 to 8.00 and 6.00 to 7.00, respectively.
With `CC(=O)Nc1cc2nc(C(C)C)nn2c(-c2ccco2)n1` [Compound 48, N-[5-(furan-2-yl)-2-propan-2-yl-[1,2,4]triazolo[1,5-c]pyrimidin-7-yl]acetamide], the negative logarithm of the IC50 (pIC50) in test [1] and in test [2] was over 8.00 throughout.
In the case of `Cc1nc2cc(NC(=O)C3CC3)nc(-c3ccc(C(F)(F)F)o3)n2n1` [Compound 69, N-[2-methyl-5-[5-(trifluoromethyl)furan-2-yl]-[1,2,4]triazolo[1,5-c]pyrimidin-7-yl]cyclopropanecarboxamide], the pIC50 in test [1] is over 8.00; in test [2] it was 7.00 to 8.00.
On to `Cc1nc2c(-c3ccc(C)o3)nc(NC(=O)C3CC3)cn2n1` [Compound 169, N-[2-methyl-8-(5-methlfuran-2-yl)-[1,2,4]triazolo[1,5-a]pyrazin-6-yl]cyclopropanecarboxamide], for which the negative logarithm of the IC50 (pIC50) in test [1] and in test [2] was over 8.00 in each case.
Regarding `Cc1nc2c(-c3ccc(F)cc3)nc(N)c(Br)n2n1` [Compound 171, 5-bromo-8-(4-fluorophenyl)-2-methyl-[1,2,4]triazolo[1,5-a]pyrazin-6-amine], the pIC50 in test [1] is over 8.00; in test [2], 7.00 to 8.00.
In the case of `CC(=O)Nc1cn2cc(C)nc2c(-c2ccc(C)o2)n1` [Compound 205, N-[2-methyl-8-(5-methylfuran-2-yl)imidazo[1,2-a]pyrazin-6-yl]acetamide], the results for the pIC50 in test [1] and in test [2] were over 8.00 and 7.00 to 8.00, respectively.
For `Cc1nc2cc(NC(=O)C3CC3)nc(-c3cccc(C#N)c3)n2n1` [Compound 53, N-[5-(3-cyanophenyl)-2-methyl-[1,2,4]triazolo[1,5-c]pyrimidin-7-yl]cyclopropanecarboxamide], in that order: 7.00 to 8.00 and 6.00 to 7.00.
`Cc1ccc(-c2nc(NC(=O)C3CC3)cn3nc(C(C)C)nc23)o1` [Compound 173, N-[8-(5-methylfuran-2-yl)-2-propan-2-yl-[1,2,4]triazolo[1,5-a]pyrazin-6-yl]cyclopropanecarboxamide]: the negative logarithm of the IC50 (pIC50) in test [1] and in test [2] was over 8.00 throughout.
In the case of `Cc1nc2c3nc(C(F)(F)F)[nH]c3nc(-c3ccco3)n2n1` [Compound 165, 5-(furan-2-yl)-8-methyl-2-(trifluoromethyl)-3H-[1,2,4]triazolo[5,1-f]purine], the negative-log IC50 (pIC50) in test [1] and in test [2] was under 6.00 throughout.

As a reminder, the pIC50 is the negative decadic logarithm of the IC50, by convention in mol/L.
